# Source: PubChem BioAssay (NCI)
#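 Results reflect a 48-hour exposure of cells in 96-well plates to compound at five concentrations. At the GI50, growth is halved. TGI: total growth inhibition.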
# Key:
# Assay in all cases: inhibition of tumour cell growth, NCI panel, 48 h
# [1] = tested on: SW-620 colon
# [2] = tested on: CAKI-1 renal
# [3] = tested on: SF-268 CNS
# [4] = tested on: OVCAR-4 ovarian
# [5] = tested on: MOLT-4 leukemia
# [6] = tested on: M14 melanoma
# [7] = tested on: 786-0 renal
# [8] = tested on: SK-MEL-28 melanoma
# [9] = tested on: SF-539 CNS
# [10] = tested on: COLO 205 colon
Structure (SMILES),GI50 [1],TGI [1],GI50 [2],TGI [2],GI50 [3],TGI [3],GI50 [4],TGI [4],GI50 [5],TGI [5],GI50 [6],TGI [6],GI50 [7],TGI [7],GI50 [8],TGI [8],GI50 [9],TGI [9],TGI [10],GI50 [10]
O=C(Nc1cc[c]([Sb](=[O])([OH])[OH])cc1)c1ccccc1,> 100 µM,> 100 µM,> 100 µM,> 100 µM,> 100 µM,> 100 µM,> 100 µM,> 100 µM,> 100 µM,> 100 µM,> 100 µM,> 100 µM,> 100 µM,> 100 µM,> 100 µM,> 100 µM,–,–,–,–
Cc1ccc(-c2nc(N)nc3c2nnn3Cc2cccc(CO[C@H]3CCOC3)n2)o1,> 100 µM,> 100 µM,> 100 µM,> 100 µM,> 100 µM,> 100 µM,66.5 µM,> 100 µM,98.4 µM,> 100 µM,> 100 µM,> 100 µM,> 100 µM,> 100 µM,> 100 µM,> 100 µM,> 100 µM,> 100 µM,–,–
COc1cc(C(=O)C/C(CCC(=O)Nc2ccc(Cl)cc2C)=N/NC(=O)C(N)=O)ccc1O,–,> 100 µM,–,> 100 µM,–,> 100 µM,–,> 100 µM,–,> 100 µM,–,> 100 µM,–,> 100 µM,–,–,–,> 100 µM,> 100 µM,–
COc1cc(C(c2cc3c(cc2O)OCO3)N2CCCCC2)cc(OC)c1OC (configuration not stated),–,12 µM,–,27.6 µM,–,31.5 µM,–,25.2 µM,–,–,–,18.5 µM,–,12.9 µM,–,32 µM,–,33.9 µM,26.6 µM,–
NC(=N\N=C/c1cccc([N+](=O)[O-])c1)/C(N)=N\N=C/c1cccc([N+](=O)[O-])c1,> 100 µM,> 100 µM,> 100 µM,> 100 µM,> 100 µM,> 100 µM,–,–,> 100 µM,> 100 µM,> 100 µM,> 100 µM,> 100 µM,> 100 µM,> 100 µM,> 100 µM,> 100 µM,> 100 µM,> 100 µM,> 100 µM
Cc1nc2cc(N)c(F)cc2[nH]1,–,> 100 µM,–,> 100 µM,–,> 100 µM,–,> 100 µM,–,> 100 µM,–,–,–,> 100 µM,–,> 100 µM,–,> 100 µM,> 100 µM,–
Cc1cc(N2CCCC2)nc(NC2CCCC(Nc3ccnc4cc(Cl)ccc34)C2)n1 (configuration not stated),1.27 µM,3.25 µM,–,–,1.19 µM,3.46 µM,1.52 µM,5.27 µM,0.478 µM,3.13 µM,1.14 µM,2.51 µM,1.45 µM,2.87 µM,1.77 µM,3.43 µM,1.26 µM,2.62 µM,3.35 µM,1.46 µM
c1cc(OCCN2CCCCC2)ccc1CNc1ccc2nc(CCC3CCCCC3)[nH]c2c1,1.82 µM,3.84 µM,1.96 µM,3.93 µM,2.08 µM,5.43 µM,2.8 µM,12.3 µM,2.01 µM,6.2 µM,1.72 µM,3.38 µM,1.65 µM,3.55 µM,–,–,1.57 µM,3.06 µM,3.31 µM,1.76 µM
CN(C)CC/C(=N\Nc1ccccc1)c1ccccc1,–,–,–,11.2 µM,–,> 100 µM,–,32.4 µM,–,> 100 µM,–,4.73 µM,–,51.2 µM,–,–,–,32.6 µM,33.5 µM,–
O=C1NC2CCC(C2)C1c1ccccc1 (configuration not stated),–,> 100 µM,–,–,–,> 100 µM,–,> 100 µM,–,> 100 µM,–,> 100 µM,–,> 100 µM,–,> 100 µM,–,> 100 µM,> 100 µM,–
COC(=O)C(=O)C(C#N)c1ccc(CC#N)cc1 (configuration not stated),–,> 100 µM,–,> 100 µM,–,> 100 µM,–,–,–,> 100 µM,–,> 100 µM,–,> 100 µM,–,> 100 µM,–,> 100 µM,–,–
O=c1ccnc2c1ccc1[nH]cccc12,–,> 100 µM,–,–,–,> 100 µM,–,> 100 µM,–,> 100 µM,–,> 100 µM,–,> 100 µM,–,> 100 µM,–,> 100 µM,> 100 µM,–
Cc1ccc(NC(=O)CCC/C(CC(=O)c2ccc(Br)cc2)=N/NC(=O)CC#N)cc1,–,> 100 µM,–,–,–,> 100 µM,–,> 100 µM,–,> 100 µM,–,> 100 µM,–,> 100 µM,–,> 100 µM,–,–,> 100 µM,–
CC(=O)/C(=C\C1=CCCO1)C(=O)Nc1ccccc1C,–,> 100 µM,–,> 100 µM,–,> 100 µM,–,> 100 µM,–,> 100 µM,–,> 100 µM,–,> 100 µM,–,–,–,> 100 µM,–,–
CC(=O)Nc1c(C)ccc2c1C(=O)c1ccccc1C2=O,–,> 100 µM,–,> 100 µM,–,> 100 µM,–,> 100 µM,–,> 100 µM,–,> 100 µM,–,> 100 µM,–,–,–,> 100 µM,> 100 µM,–
CC1(C)CCC[C@@]2(C)C1CC[C@H]1CC(O)C3(C)CCC12C3 (some centres not stated),–,30.8 µM,–,32 µM,–,40.9 µM,–,31.9 µM,–,44.5 µM,–,31 µM,–,31.5 µM,–,33.7 µM,–,33 µM,–,–
COC(=O)C(=O)C(C(=O)C(=O)Nc1ccccc1C(C)=O)c1nc2ccc(C(=O)c3ccccc3)cc2[nH]c1=O (configuration not stated),–,–,–,> 100 µM,–,> 100 µM,–,> 100 µM,–,> 100 µM,–,> 100 µM,–,> 100 µM,–,–,–,> 100 µM,–,–
CC/C(=C(/CC)c1ccc(O)cc1)c1ccc([O-])cc1.CC/C(=C(/CC)c1ccc(O)cc1)c1ccc([O-])cc1.O=C([CH-]C(=O)c1ccccc1)c1ccccc1.O=C([CH-]C(=O)c1ccccc1)c1ccccc1.[Ti+4],6.35 µM,19.1 µM,16.3 µM,61 µM,18 µM,73.2 µM,24.8 µM,> 100 µM,4.93 µM,> 100 µM,8.34 µM,–,13.7 µM,33.1 µM,15.8 µM,> 100 µM,–,–,> 100 µM,33.8 µM
